Measured values as given in patent publication US20220274947A1, “NOVEL HETEROARYL-TRIAZOLE COMPOUNDS AS PESTICIDES” (Bayer Aktiengesellschaft, priority 2019, published 2022).

Legend:
Type in all cases: in vivo
Diabrotica balteata = Diabrotica balteata spray test; conditions: 168 h, wheat seeds, larvae, after 7 days, read-out: activity (efficacy: 100% means all seedlings have grown up like in the untreated, uninfected control); for pest or weed control at 32 µg/disc, 100 g/ha: application rate 100 g/ha (=32 μg/well); for pest or weed control at 160 µg/disc, 500 g/ha: application rate 500 g/ha (=160 μg/well)
Summary of the method: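 Efficacy (%) was scored 7 days after spraying, with 100% meaning growth like the untreated, uninfected control and 0% meaning no seedling grew. Spray solutions of compound in acetone/DMF with emulsifier-containing water went onto 1-day-germinated wheat seeds, and each unit was then infested with 10-20 banded cucumber beetle larvae.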

Ctenocephalides felis [1] = assay: Ctenocephalides felis oral test (CTECFE Oral); conditions: 48 h, read-out: activity (mortality)
Summary of the method: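 Percent mortality was recorded 2 days after roughly 20 adult Ctenocephalides felis fed on treated cattle blood. The blood was warmed to 37 °C beneath a parafilm membrane, with the fleas kept at room temperature. Compound was dissolved in DMSO and diluted into the blood to test concentration.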

Myzus persicae [2] = assay: Myzus persicae oral test; conditions: 120 h, read-out: activity (mortality)
Summary of the method: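 Percent mortality was recorded at day 5, where 0% means no aphids killed. Compound prepared from an acetone concentrate diluted in water and combined with IPL41 medium containing sugar was offered to mixed-stage green peach aphids, which sucked it through a parafilm seal.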

Rhipicephalus sanguineus = Rhipicephalus sanguineus in-vitro contact test, adult brown dog ticks (RHIPSA Cont); conditions: 48 h, after 48 hours, read-out: activity (efficacy: 100% means all ticks are dead or moribund); for pest or weed control at 1 µg/cm2, 100 g/ha: application rate 1 μg/cm^2 (=100 g/ha); for pest or weed control at 5 µg/cm2, 500 g/ha: application rate 5 μg/cm^2 (=500 g/ha)
Summary of the method: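 Compound in acetone (9 mg/mL stock, diluted to test concentration) is coated onto inner walls of glass tubes by rotation for 2 h at 30 rpm. Efficacy is read after 48 h: ticks are tapped down and held on a 45-50° C plate for at most 5 min, and immotile or uncoordinated ones that fail to climb away count as dead or moribund.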

Rhipicephalus microplus [3] = assay: Rhipicephalus (Boophilus) microplus dip test (BOOPMI Dip); conditions: 168 h, application rate 100 ppm, engorged adult female ticks, after 7 days, read-out: activity (efficacy: 100% means all eggs are infertile)
Protocol: Rhipicephalus (Boophilus) Microplus—Dip Test (BOOPMI Dip)
Test Animal: cattle ticks (Rhipicephalus microplus) strain parkhurst, SP-resistant Solvent: dimethyl sulfoxide
To produce a suitable preparation of active compound, 10 mg of active compound are dissolved in 0.5 mL solvent, and the concentrate is diluted with water to the desired concentration.
This compound solution is pipetted into tubes. 8-10 engorged, adult, female cattle ticks (Rhipicephalus microplus) are placed in perforated tubes. These tubes are immersed in the aqueous compound solution until the ticks are completely moistened. After the liquid has drained off, the ticks are transferred to a filter paper in a plastic tray and stored in a climate chamber.
After 7 days egg deposition of fertile eggs is monitored. Eggs where fertility is not visible are stored in a climate chamber till hatching after about 42 days. An efficacy of 100% means all eggs are infertile; 0% means all eggs are fertile.

Spodoptera frugiperda = Spodoptera frugiperda spray test; conditions: in Zea mays, 168 h, read-out: activity (mortality)
Summary of the method: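 Percent kill of fall armyworm caterpillars was assessed 7 days after infesting dried, treated maize leaf sections. Treatment was a spray of compound in acetone/dimethylformamide, diluted with water containing emulsifier at 1000 ppm.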

Rhipicephalus microplus [4] = assay: Rhipicephalus (Boophilus) microplus in-vitro contact test, larval cattle tick, strain Parkhurst (BOOPMI Cont); conditions: application rate 5 μg/cm^2 (=500 g/ha), tick larvae, after 48 hours, read-out: activity (efficacy: 100% means all larvae are dead or moribund)
Summary of the method: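 After 48 h at 27° C. and 85% humidity, percent dead or moribund larvae was scored from negative geotactic behaviour. Larvae (20-50, Parkhurst strain, synthetic pyrethroid-resistant) were exposed in tubes coated with compound from acetone, 900 ppm corresponding to 5 μg/cm^2.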

Nezara viridula = Nezara viridula spray test; conditions: in Hordeum vulgare, 96 h, barley plants, larvae, after 4 days; for mortality at 500 g/ha: application rate 500 g/ha
Summary of the method: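 Mortality was read at day 4 (0% = no kill, 100% = total kill) after spraying larva-infested barley plants. Test solutions were made from an acetone/DMF concentrate diluted with water holding 1000 ppm alkylarylpolyglycol ether emulsifier.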

Rhipicephalus microplus [5] = assay: Rhipicephalus (Boophilus) microplus injection test (BOOPMI Inj); conditions: 168 h, injection into adult engorged female ticks, egg deposition after 7 days, read-out: activity (efficacy: 100% means all eggs are infertile); for pest or weed control at 0.004 mg: application rate 4 μg/tick; for pest or weed control at 0.02 mg: application rate 20 μg/tick
Summary of the method: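 Compound in DMSO, 1 μL, injected abdominally into five adult engorged females, which were then held in a climate chamber. Read-out is egg fertility, scored from deposition at 7 days, with unclear eggs followed to hatching (~42 days); 0% means all eggs fertile, 100% all infertile.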

Ctenocephalides felis [6] = assay: Ctenocephalides felis in-vitro contact test, adult cat flea (CTECFE Cont); conditions: application rate 5 μg/cm^2 (=500 g/ha), adult cat fleas, after 48 hours, read-out: activity (efficacy: 100% means all fleas are dead or moribund)
Summary of the method: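 Efficacy, as percent of fleas dead or moribund, was scored 48 h after adults (5-10 per tube) were placed in glass tubes whose walls carried dried compound at 5 μg/cm^2 (900 ppm solution). Moribund meant failing to climb away from a 45-50° C. hot plate within 5 min.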

[7] = test system: Aedes aegypti strain MONHEIM; assay: Aedes aegypti test (AEDSAE surface treatment & contact assay); conditions: surface concentration 20 mg/m^2, glazed tile, exposure 30 minutes, 24 hours after contact, read-out: efficacy (mortality)
Summary of the method: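 Compound dissolved in acetone (2 mg/ml) with 2000 ppm rapeseed oil methyl ester, pipetted onto glazed tile and dried. Adult mosquitoes exposed on the surface for 30 min; percent mortality scored 24 h after contact.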

Nilaparvata lugens = Nilaparvata lugens spray test; conditions: 96 h, rice plants, after 4 days; for mortality at 100 g/ha: application rate 100 g/ha; for mortality at 500 g/ha: application rate 500 g/ha
Protocol: Nilaparvata lugens—Spray Test Solvent: 78.0 parts by weight of acetone • • 1.5 parts by weight of dimethylformamide Emulsifier: alkylarylpolyglycol ether
To produce a suitable preparation of active compound, 1 part by weight of active compound is mixed with the stated amount of solvents and is diluted with water, containing an emulsifier concentration of 1000 ppm, to the desired concentration. Further test concentrations are prepared by dilution with emulsifier containing water.
Rice plants (Oryza sativa) are sprayed with a preparation of the active ingredient of the desired concentration and the plants are infested with the brown planthopper (Nilaparvata lugens).
After 4 days mortality in % is determined. 100% means all planthoppers have been killed and 0% means none of the planthoppers have been killed.

Myzus persicae [8] = assay: Myzus persicae spray test; conditions: in Brassica rapa, foliar, 120 h, read-out: activity (mortality), application rate 100 g/ha, spray, Chinese cabbage leaf disks, after 5 days
Summary of the method: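 Aphid mortality in % was assessed 5 days after spraying; leaf disks of Brassica pekinensis carrying mixed-instar green peach aphids were treated. Spray preparation: active compound in acetone plus dimethylformamide, diluted with emulsifier-containing water (1000 ppm).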

| SMILES | pest or weed control at 32 µg/disc, 100 g/ha (Diabrotica balteata) [%] | pest or weed control at 160 µg/disc, 500 g/ha (Diabrotica balteata) [%] | mortality at 100 ppm (Ctenocephalides felis [1]) [%] | mortality at 4 ppm (Myzus persicae [2]) [%] | pest or weed control at 1 µg/cm2, 100 g/ha (Rhipicephalus sanguineus) [%] | pest or weed control at 100 ppm (Rhipicephalus microplus [3]) [%] | mortality at 100 g/ha (Spodoptera frugiperda) [%] | mortality at 500 g/ha (Spodoptera frugiperda) [%] | pest or weed control at 5 µg/cm2 (Rhipicephalus microplus [4]) [%] | mortality at 500 g/ha (Nezara viridula) [%] | pest or weed control at 0.004 mg (Rhipicephalus microplus [5]) [%] | pest or weed control at 0.02 mg (Rhipicephalus microplus [5]) [%] | pest or weed control at 5 µg/cm2 (Ctenocephalides felis [6]) [%] | mortality at 20 mg/m2 [7] [%] | pest or weed control at 5 µg/cm2, 500 g/ha (Rhipicephalus sanguineus) [%] | mortality at 100 g/ha (Nilaparvata lugens) [%] | mortality at 500 g/ha (Nilaparvata lugens) [%] | mortality at 100 g/ha (Nezara viridula; application rate 100 g/ha) [%] | mortality at 100 g/ha (Myzus persicae [8]) [%] |
| --- | --- | --- | --- | --- | --- | --- | --- | --- | --- | --- | --- | --- | --- | --- | --- | --- | --- | --- | --- |
| CC(C)c1nc([C@H](C)NC(=O)c2cc(C(F)(F)F)cc(C(F)(F)F)c2)n(-c2ccc(C#N)cn2)n1 [I-7] | 100 | 100 | 100 | 100 | 100 | 100 | 100 | 83 | 100 | 100 | 100 | 100 |  |  |  |  |  |  |  |
| CC(C)c1nc([C@H](C)NC(=O)c2cc(Cl)cc(C(F)(F)F)c2)n(-c2ccc(C#N)cn2)n1 [I-8] | 100 | 100 |  |  |  | 100 | 100 | 100 | 80 |  | 100 | 100 | 80 | 80 to 100 |  |  |  |  |  |
| CC(C)c1nc([C@H](C)NC(=O)c2cc(Br)cc(OC(F)(F)F)c2)n(-c2ccc(C#N)cn2)n1 [I-26] | 100 |  |  |  | 80 |  | 100 |  | 100 |  | 100 | 100 |  | 80 to 100 | 100 | 90 |  |  |  |
| C[C@H](NC(=O)c1cc(Cl)cc(C(F)(F)C(F)(F)F)c1)c1nc(C2CC2)nn1-c1ccc(C#N)cn1 [I-43] | 100 |  | 100 |  |  |  | 100 |  | 100 |  | 100 |  |  |  |  | 90 |  |  |  |
| C[C@H](NC(=O)c1cc(C(F)(F)F)cc(C(F)(F)F)c1)c1ncnn1-c1ccc(S(C)(=O)=O)cn1 [II-44] | 100 | 100 |  | 100 | 100 |  | 100 | 100 | 100 | 100 | 100 | 100 |  |  | 100 |  | 90 |  |  |
| C[C@H](NC(=O)c1cc(C(F)(F)F)cc(C(F)(F)F)c1)c1ncnn1-c1ccc(C(=O)N(C)CC(F)(F)F)cn1 [II-74] | 100 | 100 |  | 100 | 100 |  | 100 | 100 | 100 | 100 | 100 | 100 | 100 |  | 100 |  | 90 |  |  |
| Cc1nc([C@H](C)NC(=O)c2cc(C(F)(F)F)cc(C(F)(F)F)c2)n(-c2ccc(C(=O)N(C)CCN(C)C)cn2)n1 [II-95] |  |  | 100 | 90 | 100 |  |  |  | 90 |  | 80 |  |  |  |  | 90 |  | 100 |  |
| Cc1nc([C@H](C)NC(=O)c2cc(Cl)cc(C(F)(F)F)c2)n(-c2cnc(C#N)cn2)n1 [II-104] |  |  | 100 |  | 100 |  | 100 |  | 100 |  | 100 |  | 100 |  | 100 | 90 |  |  | 100 |
